Tests used:
[1] = target: recombinant rat α4β3γ2 receptors (Rattus norvegicus, UniProt P18508+P28471); assay: Two-electrode voltage clamp of GABA-induced chloride currents in Xenopus oocytes; assay type: cell-based; details: for efficacy (% GABA EC3): α4β3γ2, ns = not significant
[2] = target: recombinant rat α6β3γ2 receptors (Rattus norvegicus, UniProt P18508+P30191); assay: as above; assay type: cell-based; details: for efficacy (% GABA EC3): α6β3γ2, ns = not significant
[3] = target: recombinant rat α3β3γ2 receptors (Rattus norvegicus, UniProt P18508+P20236); assay: as above; assay type: cell-based; details: for efficacy (% GABA EC3): α3β3γ2, ns = not significant
[4] = target: recombinant rat α3β3γ2F77I receptors (Rattus norvegicus, UniProt P18508+P20236, F115I); assay: as above; assay type: cell-based; details: α3β3γ2F77I, ns = not significant
[5] = target: recombinant rat α5β3γ2 receptors (Rattus norvegicus, UniProt P18508+P19969); assay: as above; assay type: cell-based; details: for efficacy (% GABA EC3): α5β3γ2, ns = not significant
[6] = tested on: GABAA receptors containing the γ2F77I mutation; assay: Modulation of GABA EC3 in receptors containing the γ2F77I mutation; assay type: cell-based, rat; details: 10 μM; some γ2F77I receptors
[7] = target: recombinant rat α1β3γ2F77I receptors (Rattus norvegicus, UniProt P18508+P62813, F115I); assay: Two-electrode voltage clamp of GABA-induced chloride currents in Xenopus oocytes; assay type: cell-based; details: α1β3γ2F77I; for efficacy (% GABA EC3): ns = not significant
[8] = target: recombinant rat α2β3γ2 receptors (Rattus norvegicus, UniProt P18508+P23576); assay: as above; assay type: cell-based
[9] = target: recombinant rat α5β3γ2F77I receptors (Rattus norvegicus, UniProt P18508+P19969, F115I); assay: as above; assay type: cell-based; details: α5β3γ2F77I, ns = not significant
[10] = target: recombinant rat α2β3γ2F77I receptors (Rattus norvegicus, UniProt P18508+P23576, F115I); assay: as above; assay type: cell-based; details: α2β3γ2F77I, ns = not significant
[11] = tested on: GABAA receptors of mice containing the point mutation γ2F77I; details: receptor binding; ref Ogris et al., 2004; cited from earlier work
[12] = target: recombinant rat α1β3γ2 receptors (Rattus norvegicus, UniProt P18508+P62813); assay: Two-electrode voltage clamp of GABA-induced chloride currents in Xenopus oocytes; assay type: cell-based; details: for efficacy (% GABA EC3): ns = not significant
[13] = target: recombinant rat α4β3γ2F77I receptors (Rattus norvegicus, UniProt P18508+P28471, F115I); assay: as above; assay type: cell-based; details: ns = not significant
α5 receptors = details: ref Atack et al., 2006; Quirk et al., 1996; cited from earlier work
α3β3γ2 receptors = details: 10 μM, ref Atack et al., 2006; cited from earlier work
[14] = target: recombinant rat α6β3γ2F77I receptors (Rattus norvegicus, UniProt P18508+P30191, F115I); assay: Two-electrode voltage clamp of GABA-induced chloride currents in Xenopus oocytes; assay type: cell-based; details: ns = not significant
α1β3 receptors = α1β3 receptors (Rattus norvegicus, UniProt P62813+P63079); assay: Zn2+ reduction of GABA-induced chloride flux; assay type: cell-based; details: 10 μM Zn2+, means ± SEM, n=4
[15] = 100 nM, α2β3γ2, ns = not significant
[16] = read-out: efficacy (% GABA EC3)

Sequence of recombinant rat α5β3γ2 receptors (P19969 32-464 limits assumed): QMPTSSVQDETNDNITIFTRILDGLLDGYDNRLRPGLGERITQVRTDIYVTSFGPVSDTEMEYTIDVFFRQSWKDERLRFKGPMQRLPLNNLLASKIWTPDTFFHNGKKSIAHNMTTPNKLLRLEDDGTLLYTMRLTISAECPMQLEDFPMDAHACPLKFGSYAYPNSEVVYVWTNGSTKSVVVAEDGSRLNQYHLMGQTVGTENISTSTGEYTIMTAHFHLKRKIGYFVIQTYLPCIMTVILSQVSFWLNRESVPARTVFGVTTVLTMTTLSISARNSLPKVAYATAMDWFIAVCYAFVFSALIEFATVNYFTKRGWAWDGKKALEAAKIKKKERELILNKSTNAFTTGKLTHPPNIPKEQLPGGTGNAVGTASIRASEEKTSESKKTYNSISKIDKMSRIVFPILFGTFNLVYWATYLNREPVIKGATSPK
Sequence of recombinant rat α5β3γ2 receptors (P63079 26-473 partner): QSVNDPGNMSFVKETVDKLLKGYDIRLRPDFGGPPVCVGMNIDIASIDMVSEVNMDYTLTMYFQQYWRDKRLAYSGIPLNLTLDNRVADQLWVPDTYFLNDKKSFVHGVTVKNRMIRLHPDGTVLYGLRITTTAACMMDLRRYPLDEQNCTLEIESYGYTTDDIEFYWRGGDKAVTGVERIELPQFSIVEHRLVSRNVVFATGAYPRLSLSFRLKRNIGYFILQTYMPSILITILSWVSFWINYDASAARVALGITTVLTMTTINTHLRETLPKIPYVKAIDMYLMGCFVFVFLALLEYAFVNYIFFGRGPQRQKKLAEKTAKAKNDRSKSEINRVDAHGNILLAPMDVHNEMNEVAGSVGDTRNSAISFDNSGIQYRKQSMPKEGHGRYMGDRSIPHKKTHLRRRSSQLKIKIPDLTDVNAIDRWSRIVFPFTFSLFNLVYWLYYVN
Sequence of recombinant rat α5β3γ2 receptors (P18508 39-466): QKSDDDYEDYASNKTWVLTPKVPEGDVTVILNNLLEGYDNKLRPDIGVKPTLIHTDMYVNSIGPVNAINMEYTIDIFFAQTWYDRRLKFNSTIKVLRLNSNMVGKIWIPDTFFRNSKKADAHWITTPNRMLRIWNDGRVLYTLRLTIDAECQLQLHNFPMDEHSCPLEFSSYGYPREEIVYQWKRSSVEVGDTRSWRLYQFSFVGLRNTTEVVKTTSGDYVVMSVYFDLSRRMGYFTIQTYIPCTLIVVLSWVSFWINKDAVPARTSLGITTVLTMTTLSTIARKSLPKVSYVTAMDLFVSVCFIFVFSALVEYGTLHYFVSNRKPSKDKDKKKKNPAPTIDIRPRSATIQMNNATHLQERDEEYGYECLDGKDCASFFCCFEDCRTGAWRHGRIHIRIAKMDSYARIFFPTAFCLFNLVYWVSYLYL
Sequence of recombinant rat α5β3γ2F77I receptors (P19969 32-464 limits assumed): as the sequence (P19969 32-464 limits assumed) above
Sequence of recombinant rat α5β3γ2F77I receptors (P63079 26-473 partner): as the sequence (P63079 26-473 partner) above
Sequence of recombinant rat α5β3γ2F77I receptors (P18508 39-466 F115I): as the sequence (P18508 39-466) above, with F77I counted along it
Sequence of recombinant rat α2β3γ2 receptors (P23576 29-451): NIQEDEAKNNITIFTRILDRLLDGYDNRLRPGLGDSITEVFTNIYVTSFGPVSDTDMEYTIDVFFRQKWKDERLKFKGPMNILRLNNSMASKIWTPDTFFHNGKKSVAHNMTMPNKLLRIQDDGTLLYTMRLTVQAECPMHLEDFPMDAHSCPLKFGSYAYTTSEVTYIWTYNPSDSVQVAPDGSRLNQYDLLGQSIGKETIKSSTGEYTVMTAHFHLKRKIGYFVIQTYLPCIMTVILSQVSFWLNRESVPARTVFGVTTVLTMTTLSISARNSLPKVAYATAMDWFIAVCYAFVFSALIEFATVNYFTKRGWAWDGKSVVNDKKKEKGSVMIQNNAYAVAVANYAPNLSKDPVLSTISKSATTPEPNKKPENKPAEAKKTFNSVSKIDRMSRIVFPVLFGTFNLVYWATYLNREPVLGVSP
Sequence of recombinant rat α2β3γ2 receptors (P63079 26-473 partner): as the sequence (P63079 26-473 partner) above
Sequence of recombinant rat α2β3γ2 receptors (P18508 39-466): as the sequence (P18508 39-466) above
Sequence of α1β3 receptors (P62813 28-455): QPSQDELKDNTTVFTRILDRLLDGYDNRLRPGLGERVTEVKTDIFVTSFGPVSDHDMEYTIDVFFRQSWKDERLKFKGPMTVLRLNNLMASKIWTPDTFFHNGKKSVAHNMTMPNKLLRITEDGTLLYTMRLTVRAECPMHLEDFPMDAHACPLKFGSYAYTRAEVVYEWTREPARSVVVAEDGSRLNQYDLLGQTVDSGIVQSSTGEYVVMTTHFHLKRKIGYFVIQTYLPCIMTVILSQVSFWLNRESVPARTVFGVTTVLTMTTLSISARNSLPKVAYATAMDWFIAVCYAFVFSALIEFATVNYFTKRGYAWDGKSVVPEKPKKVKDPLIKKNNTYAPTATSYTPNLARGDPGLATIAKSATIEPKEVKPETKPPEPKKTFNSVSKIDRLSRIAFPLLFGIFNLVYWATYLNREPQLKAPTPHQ
Sequence of α1β3 receptors (P63079 26-473): as the sequence (P63079 26-473 partner) above

With Cc1nnc2ccc(-c3cccc(C(F)(F)F)c3)nn12 [CL 218872, 3-methyl-6-[3-trifluoromethyl-phenyl]-1,2,4-triazolo[4,3-b]pyridazine] the “efficacy (% GABA EC3)” value ([1]; 100 nM) was “ns”, the “efficacy (% GABA EC3)” value ([1]; 1 μM) was “ns” and the “efficacy (% GABA EC3)” value ([1]; 1 μM, listed as Cl218872) was “no effect”. The “efficacy (% GABA EC3)” value ([1]; 10 μM) was 199 ± 27 % GABA EC3, the “efficacy (% GABA EC3)” value ([2]; 100 nM) was “ns” and the “efficacy (% GABA EC3)” value ([2]; 1 μM) was “ns”. For the same compound, the “efficacy (% GABA EC3)” value ([2]; 10 μM) was “ns”, the “efficacy (% GABA EC3)” value ([2]; 10 μM, listed as Cl218872) was “no significant stimulation” and the “efficacy (% GABA EC3)” value ([3]; 100 nM) was 114 ± 2 % GABA EC3. For the same compound, the “efficacy (% GABA EC3)” value ([3]; 1 μM) was 138 ± 7 % GABA EC3, the “efficacy (% GABA EC3)” value ([3]; 10 μM) was 195 ± 8 % GABA EC3 and the “fold reduced potency for enhancing GABA EC3” value ([3]; α3β3γ2 versus α1β3γ2) was “approximately 3 fold”. For the same compound, the “efficacy (% GABA EC3)” value ([4]; 100 nM) was “ns”, the “efficacy (% GABA EC3)” value ([4]; 1 μM) was “ns” and the “efficacy (% GABA EC3)” value ([4]; 10 μM) was 125 ± 3 % GABA EC3. For the same compound, the “efficacy (% GABA EC3)” value ([5]; 100 nM) was “ns”, the “efficacy (% GABA EC3)” value ([5]; 1 μM) was 114 ± 1 % GABA EC3 and the “efficacy (% GABA EC3)” value ([5]; 10 μM) was 128 ± 2 % GABA EC3. The “stimulation of GABA-induced chloride flux” value [6] was 20–40%, the “efficacy (% GABA EC3)” value ([7]; 100 nM) was “ns” and the “efficacy (% GABA EC3)” value ([7]; 1 μM) was “ns”. For the same compound, the “efficacy (% GABA EC3)” value ([7]; 10 μM) was 132 ± 4 % GABA EC3, the “efficacy (% GABA EC3)” value [8, 15] was “ns” and the “efficacy (% GABA EC3)” value ([8]; 1 μM, α2β3γ2, ns = not significant) was “ns”. The “efficacy (% GABA EC3)” value ([8]; 10 μM, α2β3γ2, ns = not significant) was 162 ± 3 % GABA EC3, the “further fold reduction of potency for enhancing GABA current” value ([8]; α2β3γ2 versus α3β3γ2) was “approximately 3 fold” and the “efficacy (% GABA EC3)” value ([9]; 100 nM) was “ns”. The “efficacy (% GABA EC3)” value ([9]; 1 μM) was “ns”, the “efficacy (% GABA EC3)” value ([9]; 10 μM) was 120 ± 3 % GABA EC3 and the “efficacy (% GABA EC3)” value ([10]; 100 nM) was “ns”. For the same compound, the “efficacy (% GABA EC3)” value ([10]; 1 μM) was “ns”, the “efficacy (% GABA EC3)” value ([10]; 10 μM) was “ns” and the “shift in affinity caused by γ2F77I” value [11] was about 900 fold. For the same compound, the “efficacy (% GABA EC3)” value ([12]; 100 nM, α1β3γ2) was 119 ± 7 % GABA EC3, the “efficacy (% GABA EC3)” value ([12]; 1 μM, α1β3γ2) was 172 ± 10 % GABA EC3 and the “efficacy (% GABA EC3)” value ([12]; 10 μM, α1β3γ2) was 214 ± 13 % GABA EC3.

For CCOC(=O)c1ncn2c1C1CCCN1C(=O)c1cc(OC)ccc1-2 [L-655,708, ethyl-7-methoxy-11,12,13,13a-tetrahydro-9-oxo-9H-imidazo[1,5-a]pyrrolo[2,1-c][1,4] benzodiazepine-1-carboxylate], the EC50 [1] was 168 ± 71 nM, the “efficacy (% GABA EC3)” value ([1]; 10 nM) was “ns” and the activity at 0.1 µM [1, 16] was 143 ± 12%. For the same compound, the activity at 1 µM [1, 16] was 215 ± 4%, the activity at 10 µM [1, 16] was 224 ± 15% and the EC50 [2] was over 470 nM. For the same compound, the activity at 0.01 µM [2, 16] was 118 ± 4%, the activity at 0.1 µM [2, 16] was 131 ± 12% and the activity at 1 µM [2, 16] was 176 ± 25%. For the same compound, the activity at 10 µM [2, 16] was 199 ± 31%, the EC50 [3] was 10 ± 3 nM and the activity at 0.01 µM [3, 16] was 113 ± 1%. For the same compound, the activity at 0.1 µM [3, 16] was 126 ± 1%, the activity at 1 µM [3, 16] was 131 ± 4% and the activity at 10 µM [3, 16] was 126 ± 4%. The “efficacy (% GABA EC3)” value ([4]; 10 nM) was “ns”, the “efficacy (% GABA EC3)” value ([4]; 100 nM) was “ns” and the “efficacy (% GABA EC3)” value ([4]; 1 μM) was “ns”. For the same compound, the “efficacy (% GABA EC3)” value ([4]; 10 μM) was “ns”, the “efficacy (% GABA EC3)” value ([5]; 10 nM) was “ns” and the activity at 0.1 µM [5, 16] was 91 ± 1%. The activity at 1 µM [5, 16] was 84 ± 5%, the activity at 10 µM [5, 16] was 66 ± 7% and the “efficacy (% GABA EC3)” value ([7]; 10 nM) was “ns”. For the same compound, the “efficacy (% GABA EC3)” value ([7]; 100 nM) was “ns”, the “efficacy (% GABA EC3)” value ([7]; 1 μM) was “ns” and the “efficacy (% GABA EC3)” value ([7]; 10 μM) was “ns”. The “efficacy (% GABA EC3)” value ([13]; 10 nM) was “ns”, the “efficacy (% GABA EC3)” value ([13]; 100 nM) was “ns” and the “efficacy (% GABA EC3)” value ([13]; 1 μM) was “ns”. The “efficacy (% GABA EC3)” value ([13]; 10 μM) was “ns”, the “selectivity for α5 receptors in receptor binding assays” value (α5 receptors) was 30–50 fold and the “efficacy (% GABA EC3)” value ([8]; 10 nM, α2β3γ2, ns = not significant) was “ns”. The “efficacy (% GABA EC3)” value [8, 15] was “ns”, the activity at 1 µM ([8]; read-out: efficacy (% GABA EC3), 1 μM, α2β3γ2, ns = not significant) was 93 ± 1% and the activity at 10 µM ([8]; read-out: efficacy (% GABA EC3), 10 μM, α2β3γ2, ns = not significant) was 90%. The “efficacy (% GABA EC3)” value ([9]; 10 nM) was “ns”, the “efficacy (% GABA EC3)” value ([9]; 100 nM) was “ns” and the “efficacy (% GABA EC3)” value ([9]; 1 μM) was “ns”. The “efficacy (% GABA EC3)” value ([9]; 10 μM) was “ns”, the “efficacy (% GABA EC3)” value ([10]; 10 nM) was “ns” and the “efficacy (% GABA EC3)” value ([10]; 100 nM) was “ns”. The “efficacy (% GABA EC3)” value ([10]; 1 μM) was “ns”, the “efficacy (% GABA EC3)” value ([10]; 10 μM) was “ns” and the “shift in affinity caused by γ2F77I” value [11] was over 1000 fold. For the same compound, the “reduction of GABA-induced chloride flux to” value (α3β3γ2 receptors) was 90%, the “efficacy (% GABA EC3)” value ([12]; 10 nM, α1β3γ2) was “ns” and the “efficacy (% GABA EC3)” value ([12]; 100 nM, α1β3γ2) was “ns”. The “efficacy (% GABA EC3)” value ([12]; 1 μM, α1β3γ2) was “ns”, the “efficacy (% GABA EC3)” value ([12]; 10 μM, α1β3γ2) was 90 ± 4 % GABA EC3 and the activity at 10 µM [12, 16] was 90%. The “efficacy (% GABA EC3)” value ([14]; 10 nM) was “ns”, the “efficacy (% GABA EC3)” value ([14]; 100 nM) was “ns” and the “efficacy (% GABA EC3)” value ([14]; 1 μM) was “ns”. The “efficacy (% GABA EC3)” value ([14]; 10 μM) was “ns”.

With [Zn+2] [Zn^2+] the “GABA-induced chloride flux reduced to” value ([7]; 10 μM Zn2+, means ± SEM, n=4) was 75.4 ± 3%, the “GABA-induced chloride flux reduced to” value (α1β3 receptors) was 5.5 ± 1% and the “GABA-induced chloride flux reduced to” value ([12]; 10 μM Zn2+, α1β3γ2, means ± SEM, n=4) was 70.3 ± 3%.
